Data reported in patent publication US6211439A, “Herbicide resistance in plants” (MGI Pharma, Inc, priority 1995, dated 2001).

Tests used:
line XA17 tissue = test: Plant regeneration from line XA17 callus in presence of herbicide; format: cell-based, maize; settings: 0.1, 0.3, and 3.0 mg per liter 214
Protocol: Eighty to 90 mg quantities of maize callus tissue were transferred to embryo and shoot development (regeneration) media in petri plates. The media consisted of MS basal media supplemented with 0.1 mg per liter 2,4-D and 1×10^-7 M abscissic acid. 0.25% Gelrite (Kelco Co., San Diego, Calif.) was used as a solid support in place of agar. The tissue was incubated in the dark at 26° C. (approximately 300 footcandles,soft white fluorescent) on a cycle of 14 hours light, 10 hours dark. Developing plants reaching a size of 1-3 cm were then transferred to flasks or jars, containing MS media with no supplementation, for further development. When plants reached the two to three leaf stage, they were moved to pots containing vermiculite and exposed to light at 2600 footcandles. These plants were watered with 20% v/v MS media for one week and then with water until they grew stably. The plants were then transferred to soil for growth to maturity.
Traits which are selected for and expressed in undifferentiated cell cultures are not necessarily expressed in the differentiated organs and tissues of a developing plant. Therefore, it was necessary to examine plants regenerated from line XA17 callus tissue in the presence of normally inhibitory concentrations of 214. Line XA17 tissue was transferred to regeneration media containing 0.1, 0.3, and 3.0 mg per liter 214.

control seedlings = test: Seedling assay, control (herbicide sensitive) seedlings; format: in vivo, maize
Text: Seeds to be used as controls in the heritability assay were obtained from regenerated plants from an herbicide sensitive cell line of the same genetic background as line XA17. These regenerated plants were crossed with pollen obtained from a herbicide sensitive inbred B73 plant grown from seed. Seeds were harvested approximately forty days after pollination.
Twenty control seeds and ten XA17 seeds were surface sterilized with 2.6% sodium hypochlorite for twenty minutes and then washed with sterile distilled water. The seed was imbibed overnight in sterile water containing a small quantity of the fungicide, captan (N-trichloromethylthio-4-cyclohexene-1,2-dicarboximide). The mature embryos were then excised from the seed and plated scutellum side down on solid MS media without 2,4-D. Ten control seeds were plated on media containing no 214 and ten were plated in the presence of 6×10^-8M 214 which had been incorporated into the medium after autoclaving but before gelling. All ten XA17 seeds were plated in the presence of 6×10^-8 M 214. Seedlings were evaluated seven days after plating.
XA17 seeds homozygous for the resistance trait were obtained as described in Section 6.4.6. […] Assays were conducted as described in Section 6.4.5.

[1] = system: Black Mexican Sweet Corn cell suspension cultures; test: Growth inhibition of maize cell suspension cultures; format: cell-based
Protocol: Nonregenerable Black Mexican Sweet Corn cell suspension cultures (i.e., cell cultures which lack the ability to regenerate plants) were obtained from Dr. Burle Gengenbach, Department of Agronomy and Plant Genetics, University of Minnesota, St. Paul, Minn. Stock cell cultures were maintained in liquid Murashige and Skoog (MS) medium (Murashige and Skoog, 1962, Physiol. Plant 15: 473) containing 2 mg of 2,4-dichlorophenoxyaceticacid (2,4-D) per liter, and subcultured weekly by diluting to 1/10 the original volume with fresh medium. Cultures were grown in the dark at 26° C. in 500 ml flasks containing 125 ml media.
Growth inhibition studies were carried out in 125 ml flasks containing 30 ml of test media. 997 was filter sterilized and added to cooling media following autoclaving. Test media were innoculated with cells to give a settled cell volume (15 minutes without centrifugation) of 0.2 ml per 10 ml of suspension. After either six or seven days growth settled cell volumes were again quantitated.
To determine whether the effects of 214 were reversible, Black Mexican Sweet Corn cells growing in liquid suspension culture were exposed to 0.03 mg per liter 214 for various periods of time up to 72 hours. […] The cells were then washed with herbicide-free media and the growth rate evaluated again in the absence of herbicide.

Suspension culture cells = test: Protein synthesis: incorporation of radiolabeled amino acids into TCA-precipitable cell components; format: cell-based, maize; settings: Zea mays; 1×10^-5 M 997; cells at different post-subculture intervals; cell fresh weight basis
Protocol: Suspension culture cells were preincubated for 48 hours in the presence or absence of 1×10^-5 M 997 and then exposed for 12 hours to 75 !Ci of either ^35 S-methionine (1210 Ci/mmol, New England Nuclear, Boston, Mass.) or ^3 H-DL-leucine (55 Ci/mmol, ICN Pharmaceuticals Inc. -K and K Laboratories, Plainview, N.Y.) per 0.1 ml of cells at a cell density of 10% volume cells/volume suspension. Cells were then centrifuged 300×g, washed with cold MS culture media, and ground with a cold mortar and pestle in the presence of one volume of 6 M urea. The resulting extract was centrifuged at 12,800×g for 5 minutes. The pellet was then reextracted and, following centrifugation, the extracts were combined. Protein was precipitated by the addition of 10% w/v trichloroacetic acid (TCA). Protein was removed by centrifugation and resolubilized in 6 M urea. Incorporation of radiolabel into protein was determined by scintillation counting.

[2] = system: AHAS activity from line QJ22; test: AHAS activity assay, line QJ22; format: biochemical, maize; settings: 3×10^-6 to 3×10^-4 M 997
Protocol: Assays were conducted as a modification of the procedure of Smith et al. (1979, Molec. Gen. Genet. 169: 299-314). Plant cell culture material was ground with sand in a cold mortar and pestle in an equal quantity (w/v) of cell disruption media containing 0.05 M potassium phosphate (pH 7.0), 0.1 mM MgSO4, and 0.5 mM dithiothreitol. The preparation was centrifuged at 11,000×g for 20 minutes and the supernatant assayed for AHAS activity. Assays were conducted in 1 ml volumes containing 0.05 M potassium phosphate (pH 8.0), 40 mM pyruvate, 5 mM MgCl2, 0.1 mM thiamine pyrophosphate, 0.2 ml cell extract, and various concentrations of the herbicide of interest. The reaction mixtures were incubated at 30° C. for 75 minutes and the reaction terminated with the addition of 0.1 ml of 50% (v/v) H2 SO4. Following further incubation at 40° C. for 20 minutes, the acetoin formed from acetolactate by acidification was quantitated using the method of Westerfield (1945, J. Biol. Chem. 161: 495). To 0.2 ml of reaction mixture, 0.8 ml of water, 0.5 ml of 0.5% (w/v) creatine, and 0.5 ml of 5% (w/v) naphthol in 10% (w/v) NaOH was added. After mixing, solutions were incubated at room temperature for one hour. The development of pink color was quantitated by measuring light absorbance at 530 nm. […]

[3] = control seedlings, 6×10^-8 M 214, seven days after plating

SMILES	plantlet development on regeneration media (line XA17 tissue)	IC50 (control seedlings; Zea mays, read-out: concentration inhibiting shoot growth 50%)	average root length (control seedlings; [3])	average shoot length (control seedlings; [3])	Growth of cells in liquid suspension culture ([1]; 0.03 mg per liter 214, up to 72 hours)	growth rate after washing with herbicide-free media ([1]; after exposure to 0.03 mg per liter 214 up to 72 hours)	inhibition at 10 µM (Suspension culture cells)	herbicide concentration giving 50% growth inhibition ([1]; suspension cultures, concentration in the media, settled cell volume after six or seven days)	tolerance of AHAS activity vs AHAS from control cultures [2]
CC(C)C1(C)NC(c2nc3ccccc3cc2C(=O)O)=NC1=O (stereo not drawn) [compound 214, 2-(5-isopropyl-5-methyl-4-oxo-2-imidazolin-2-yl)3-quinolinecarboxylic acid]	Normally developing plantlets were obtained at all three herbicide levels	30 nM	1.1 cm	1.5 cm	completely inhibited	rapidly return to an uninhibited growth rate			
CC(C)C1(C)NC(c2ncccc2C(=O)O)=NC1=O (stereo not drawn) [compound 997, 2-(5-isopropyl-5-methyl-4-oxo-2-imidazolin-2-yl)nicotinic acid]							50 to 77%	1 to 3×10^-8 M	more tolerant
